The structures appear in SMILES notation. Activity calls are given as the source filed them. How the calls were made is not given here.

This is an account of results in PubChem BioAssay AID1259407 (Chemical Carcinogenesis Research Information System (CCRIS), 2018).

For the data set, the system named is CCRIS mutagenicity, Ames/micronucleus/aberration tests. The data set is described as follows: CCRIS mutagenicity studies.
Where [1] appears, read: Test System: AMES SALMONELLA TYPHIMURIUM, Strain/Indicator: TA98, Metabolic Activation: NONE, Method: PREINCUBATION
Where [2] appears, read: Test System: AMES SALMONELLA TYPHIMURIUM, Strain/Indicator: TA100, Metabolic Activation: NONE, Method: PREINCUBATION
[3] abbreviates: Test System: AMES SALMONELLA TYPHIMURIUM, Strain/Indicator: TA98, Metabolic Activation: RAT, LIVER, S-9, PCB, Method: PREINCUBATION
[4] abbreviates: Test System: AMES SALMONELLA TYPHIMURIUM, Strain/Indicator: TA100, Metabolic Activation: RAT, LIVER, S-9, PCB, Method: PREINCUBATION
Setting [5] is: Test System: AMES SALMONELLA TYPHIMURIUM, Strain/Indicator: TA98, Metabolic Activation: NONE, Method: STANDARD PLATE.
The mark [6] stands for this setting: Test System: AMES SALMONELLA TYPHIMURIUM, Strain/Indicator: TA100, Metabolic Activation: NONE, Method: STANDARD PLATE.
The mark [7] stands for this setting: Test System: AMES SALMONELLA TYPHIMURIUM, Strain/Indicator: TA100, Metabolic Activation: RAT, LIVER, S-9, AROCLOR 1254, Method: STANDARD PLATE.
The mark [8] stands for this setting: Test System: AMES SALMONELLA TYPHIMURIUM, Strain/Indicator: TA1535, Metabolic Activation: NONE, Method: STANDARD PLATE.
[9] abbreviates: Test System: AMES SALMONELLA TYPHIMURIUM, Strain/Indicator: TA98, Metabolic Activation: RAT, LIVER, S-9, AROCLOR 1254, Method: STANDARD PLATE.

Take `O=C(O)CO.[NH2-].[NH2-].[Pt+2]`: the mutagenic call under setting [1] is “active; positive”; the mutagenic call (Test System: AMES SALMONELLA TYPHIMURIUM, Strain/Indicator: TA98, Metabolic Activation: RAT, LIVER, S-9, PHENOBARBITAL AND 5,6-BENZOFLAVONE, Method: PREINCUBATION) was “active; positive”; the mutagenic call under setting [2] is “active; positive”; the mutagenic call (Test System: AMES SALMONELLA TYPHIMURIUM, Strain/Indicator: TA100, Metabolic Activation: RAT, LIVER, S-9, PHENOBARBITAL AND 5,6-BENZOFLAVONE, Method: PREINCUBATION) was “active; positive”; the mutagenic call (Test System: AMES SALMONELLA TYPHIMURIUM, Strain/Indicator: TA1535, Metabolic Activation: NONE, Method: PREINCUBATION) was “inactive; negative”; the mutagenic call (Test System: AMES SALMONELLA TYPHIMURIUM, Strain/Indicator: TA1535, Metabolic Activation: RAT, LIVER, S-9, PHENOBARBITAL AND 5,6-BENZOFLAVONE, Method: PREINCUBATION) is “inactive; negative”. Besides, the mutagenic call was “inactive; negative” (Test System: AMES SALMONELLA TYPHIMURIUM, Strain/Indicator: TA1537, Metabolic Activation: NONE, Method: PREINCUBATION); “inactive; negative” (Test System: AMES SALMONELLA TYPHIMURIUM, Strain/Indicator: TA1537, Metabolic Activation: RAT, LIVER, S-9, PHENOBARBITAL AND 5,6-BENZOFLAVONE, Method: PREINCUBATION); “inactive; negative” (Test System: E.COLI, Strain/Indicator: WP2 UVRA, Metabolic Activation: NONE, Method: PREINCUBATION); “inactive; negative” (Test System: E.COLI, Strain/Indicator: WP2 UVRA, Metabolic Activation: RAT, LIVER, S-9 PHENOBARBITAL AND 5,6-BENZOFLAVONE, Method: PREINCUBATION).
In the case of `Cc1c(O)cc2c(c1O)C(=O)c1cccc(O)c1C2=O`, the mutagenic call reads like this: under setting [1], “inactive; negative”; under setting [3], “active; positive”; under setting [2], “inactive; negative”; under setting [4], “active; positive”.
Take `O=[N+]([O-])c1cc2c(cc1Cl)Oc1cc(Cl)c(Cl)cc1O2`: the mutagenic call under setting [5] was “active; positive”; the mutagenic call (Test System: AMES SALMONELLA TYPHIMURIUM, Strain/Indicator: TA98, Metabolic Activation: RAT, LIVER, S-9, AROCLOR, Method: STANDARD PLATE) was “active; positive”; the mutagenic call under setting [6] is “active; positive”; the mutagenic call (Test System: AMES SALMONELLA TYPHIMURIUM, Strain/Indicator: TA100, Metabolic Activation: RAT, LIVER, S-9, AROCLOR, Method: STANDARD PLATE) was “active; positive”.
Consider `NC(=O)N(CCBr)N=O`, for which the mutagenic call runs as follows: (Test System: E. COLI B, Strain/Indicator: H/R30R, Metabolic Activation: NONE) “active; positive”; (Test System: E. COLI B, Strain/Indicator: HS30R, Metabolic Activation: NONE) “active; positive”.
On to `[N-]=[N+]=Nc1ccc2c(Nc3ccc(C(=O)O)cc3)c3ccccc3nc2c1`, for which the mutagenic call (Test System: AMES SALMONELLA TYPHIMURIUM, Strain/Indicator: TA1537, Metabolic Activation: NONE, Method: STANDARD PLATE) is “active; positive”.
Regarding `O=C(N=c1sn(C(=O)c2ccc([N+](=O)[O-])cc2)c2ccccc12)c1ccc([N+](=O)[O-])cc1`, the mutagenic call (Test System: AMES SALMONELLA TYPHIMURIUM, Strain/Indicator: TA100, Metabolic Activation: S-9, Method: STANDARD PLATE) was “active; positive”.
On to `CC(O)CN(CC(O)CO)N=O` (stereo not given), for which the mutagenic call reads like this: (Test System: AMES SALMONELLA TYPHIMURIUM, Strain/Indicator: TA100, Metabolic Activation: HAMSTER, LIVER, S-9, 3-METHYLCHOLANTHRENE, Method: PREINCUBATION) “inactive; negative”; (Test System: AMES SALMONELLA TYPHIMURIUM, Strain/Indicator: TA100, Metabolic Activation: HAMSTER, LIVER, S-9, PHENOBARBITAL, Method: PREINCUBATION) “active; positive”; (Test System: AMES SALMONELLA TYPHIMURIUM, Strain/Indicator: TA100, Metabolic Activation: HAMSTER, LIVER, S-9, Method: PREINCUBATION) “inactive; negative”; (Test System: AMES SALMONELLA TYPHIMURIUM, Strain/Indicator: TA100, Metabolic Activation: MOUSE, LIVER, S-9, 3-METHYLCHOLANTHRENE, Method: PREINCUBATION) “inactive; negative”; (Test System: AMES SALMONELLA TYPHIMURIUM, Strain/Indicator: TA100, Metabolic Activation: MOUSE, LIVER, S-9, PHENOBARBITAL, Method: PREINCUBATION) “active; positive”; (Test System: AMES SALMONELLA TYPHIMURIUM, Strain/Indicator: TA100, Metabolic Activation: MOUSE, LIVER, S-9, Method: PREINCUBATION) “inactive; negative”. Moreover, the mutagenic call was “inactive; negative” under setting [2] and “active; positive” (Test System: AMES SALMONELLA TYPHIMURIUM, Strain/Indicator: TA100, Method: PREINCUBATION).
In the case of `CCOP(=S)(OCC)Oc1nc(Cl)n(C(C)C)n1`, the mutagenic call reads like this: under setting [1], “active; positive”; (Test System: AMES SALMONELLA TYPHIMURIUM, Strain/Indicator: TA98, Metabolic Activation: RAT, LIVER, S-9, AROCLOR 1254, Method: PREINCUBATION) “active; positive”.
As for `CCOC(Cl)CCl` (stereo not given), the mutagenic call reads like this: (End Point: IN VITRO CHROMOSOMAL ABERRATIONS, Test System: CHL CELLS, Metabolic Activation: NONE) “active; positive (structural and ploidy changes)”; (End Point: IN VITRO CHROMOSOMAL ABERRATIONS, Test System: CHL CELLS, Metabolic Activation: RAT, LIVER, S-9, SODIUM PHENOBARBITAL AND 5,6-BENZOFLAVONE) “active; positive (structural changes)”.
As to `C1CCCCCC2OC2CCCC1` (stereo not given), the mutagenic call is “inactive; negative” under setting [6]; “inactive; negative” under setting [7]; “inactive; negative” under setting [8]; “inactive; negative” (Test System: AMES SALMONELLA TYPHIMURIUM, Strain/Indicator: TA1535, Metabolic Activation: RAT, LIVER, S-9, AROCLOR 1254, Method: STANDARD PLATE); “inactive; negative” (Test System: UDS RAT HEPATOCYTES, Strain/Indicator: THY INCORP, Metabolic Activation: NONE).
With `Cc1ccc2c(c1[N+](=O)[O-])C(=O)c1ccccc1C2=O`, the mutagenic call was “active; positive” under setting [5]; “active; positive” under setting [9]; “active; positive” under setting [7]; “inactive; negative” under setting [8]; “active; positive” (Test System: AMES SALMONELLA TYPHIMURIUM, Strain/Indicator: TA1537, Metabolic Activation: RAT, LIVER, S-9, AROCLOR 1254, Method: STANDARD PLATE); “active; positive” (Test System: AMES SALMONELLA TYPHIMURIUM, Strain/Indicator: TA1538, Metabolic Activation: NONE, Method: STANDARD PLATE).
Regarding `COc1c(CO)c(O)cc2c1C(=O)c1ccccc1C2=O`, the mutagenic call is, setting by setting: under setting [1], “inactive; negative”; under setting [3], “inactive; negative”; under setting [2], “active; positive”; under setting [4], “active; positive”.
As for `CC(=O)Nc1ccc(C(=O)/C=C/c2ccccc2)cc1`, the mutagenic call runs as follows: under setting [5], “inactive; negative”; under setting [9], “inactive; negative”; under setting [6], “inactive; negative”; under setting [7], “inactive; negative”.
With `[O][Cl+][O-]`, where the note is “End Point: IN VIVO MICRONUCLEUS, Test System: BONE MARROW POLYCHROMATIC ERYTHROCYTES, Species: MOUSE, Strain/Sex: DDY/MALE, Route: IP”, the mutagenic call is “active; positive”.
For the compound `O=NN(CCc1c[nH]c2ccccc12)C1OC[C@@H](O)[C@H](O)[C@H]1O` (stereo not given in full), for the setting “Test System: AMES SALMONELLA TYPHIMURIUM, Strain/Indicator: TA100, Metabolic Activation: NONE, Method: LIQUID INCUBATION”, the mutagenic call is “active; positive”.
